# Reference: US20230131720A1, “[1,3]DIAZINO[5,4-d]PYRIMIDINES AS HER2 INHIBITORS” (Boehringer Ingelheim International GmbH, priority 2020, published 2023)
# Like-named read-outs stand apart in the source and are kept apart here.
# How the values were obtained:
# Assay type in all cases: cell-based
# HER2 YVMA = biological target: T1, HER2 YVMA (Homo sapiens, UniProt P04626, INS775YVMA); test: pHER2 (ERBB2) YVMA assay (AlphaScreen Surefire, HEK cells); conditions: HEK cells expressing HER2 YVMA
# T1 construct: expressed in transfected cells; host or cells: human HEK cells, retroviral transduction, doxycycline-inducible expression
# T1 sequence (P04626 with tags, fused parts or gaps INS775YVMA): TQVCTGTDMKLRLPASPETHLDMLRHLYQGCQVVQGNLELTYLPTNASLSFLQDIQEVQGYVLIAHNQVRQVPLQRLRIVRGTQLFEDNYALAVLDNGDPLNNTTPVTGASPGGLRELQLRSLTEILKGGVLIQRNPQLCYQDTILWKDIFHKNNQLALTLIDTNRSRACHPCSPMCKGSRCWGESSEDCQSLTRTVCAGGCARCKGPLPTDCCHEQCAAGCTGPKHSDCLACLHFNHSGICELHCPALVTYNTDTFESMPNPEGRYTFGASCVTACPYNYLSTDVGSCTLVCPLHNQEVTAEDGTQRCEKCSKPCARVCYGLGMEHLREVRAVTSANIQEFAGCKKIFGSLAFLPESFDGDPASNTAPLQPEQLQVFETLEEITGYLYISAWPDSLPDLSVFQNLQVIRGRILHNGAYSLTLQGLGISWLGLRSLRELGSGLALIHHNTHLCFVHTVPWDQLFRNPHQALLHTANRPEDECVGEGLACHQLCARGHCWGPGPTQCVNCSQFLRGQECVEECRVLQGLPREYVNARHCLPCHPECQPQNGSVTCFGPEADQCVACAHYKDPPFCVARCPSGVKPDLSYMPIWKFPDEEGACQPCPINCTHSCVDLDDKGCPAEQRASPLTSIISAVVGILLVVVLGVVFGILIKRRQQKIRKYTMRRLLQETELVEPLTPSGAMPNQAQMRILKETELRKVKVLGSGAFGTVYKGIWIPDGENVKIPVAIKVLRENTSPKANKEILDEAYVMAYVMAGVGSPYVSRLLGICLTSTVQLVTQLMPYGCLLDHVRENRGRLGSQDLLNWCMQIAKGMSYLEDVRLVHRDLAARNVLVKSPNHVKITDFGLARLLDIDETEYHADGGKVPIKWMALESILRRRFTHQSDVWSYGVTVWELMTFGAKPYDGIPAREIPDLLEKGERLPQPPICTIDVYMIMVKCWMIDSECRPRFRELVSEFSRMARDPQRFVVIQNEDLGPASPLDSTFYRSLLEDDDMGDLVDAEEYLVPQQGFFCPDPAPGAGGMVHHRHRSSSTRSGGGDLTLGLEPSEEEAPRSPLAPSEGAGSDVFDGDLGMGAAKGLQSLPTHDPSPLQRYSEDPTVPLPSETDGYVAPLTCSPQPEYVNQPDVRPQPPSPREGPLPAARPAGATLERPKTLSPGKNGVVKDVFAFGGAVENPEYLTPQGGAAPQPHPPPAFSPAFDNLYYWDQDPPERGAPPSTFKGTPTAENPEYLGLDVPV
# Experimental: (§1) For the assay, HEK HER2 YVMA cells were seeded in MEM medium with 10% FBS. 4 hours prior to compound addition, HER2 YVMA expression was induced using 1 μg/ml Doxycycline. […] Subsequently, 60.000 cells/well in 60 μL were added. Cells were incubated with compounds for 4 h at 37° C. […] The mixture was incubated at a temperature of 20-25° C. with shaking (700 rpm) for 20 min. After centrifugation, 4 μL of the lysate were transferred to Proxiplates. […] Plates were shaken for 1 min (1400 rpm) and incubated for 2 h at a temperature of 20-25° C. in the dark.
# The results of the assay are provided as IC50 values.
# EGFR wild type (WT) = biological target: T2, EGFR wild type (WT) (Homo sapiens, UniProt P00533); test: pEGFR assay (AlphaScreen Surefire, HEK cells); conditions: HEK cells expressing EGFR WT
# T2 construct: expressed in transfected cells; host or cells: human HEK cells (ATCC CRL-1573), retroviral transduction
# T2 sequence (P00533 25-1210): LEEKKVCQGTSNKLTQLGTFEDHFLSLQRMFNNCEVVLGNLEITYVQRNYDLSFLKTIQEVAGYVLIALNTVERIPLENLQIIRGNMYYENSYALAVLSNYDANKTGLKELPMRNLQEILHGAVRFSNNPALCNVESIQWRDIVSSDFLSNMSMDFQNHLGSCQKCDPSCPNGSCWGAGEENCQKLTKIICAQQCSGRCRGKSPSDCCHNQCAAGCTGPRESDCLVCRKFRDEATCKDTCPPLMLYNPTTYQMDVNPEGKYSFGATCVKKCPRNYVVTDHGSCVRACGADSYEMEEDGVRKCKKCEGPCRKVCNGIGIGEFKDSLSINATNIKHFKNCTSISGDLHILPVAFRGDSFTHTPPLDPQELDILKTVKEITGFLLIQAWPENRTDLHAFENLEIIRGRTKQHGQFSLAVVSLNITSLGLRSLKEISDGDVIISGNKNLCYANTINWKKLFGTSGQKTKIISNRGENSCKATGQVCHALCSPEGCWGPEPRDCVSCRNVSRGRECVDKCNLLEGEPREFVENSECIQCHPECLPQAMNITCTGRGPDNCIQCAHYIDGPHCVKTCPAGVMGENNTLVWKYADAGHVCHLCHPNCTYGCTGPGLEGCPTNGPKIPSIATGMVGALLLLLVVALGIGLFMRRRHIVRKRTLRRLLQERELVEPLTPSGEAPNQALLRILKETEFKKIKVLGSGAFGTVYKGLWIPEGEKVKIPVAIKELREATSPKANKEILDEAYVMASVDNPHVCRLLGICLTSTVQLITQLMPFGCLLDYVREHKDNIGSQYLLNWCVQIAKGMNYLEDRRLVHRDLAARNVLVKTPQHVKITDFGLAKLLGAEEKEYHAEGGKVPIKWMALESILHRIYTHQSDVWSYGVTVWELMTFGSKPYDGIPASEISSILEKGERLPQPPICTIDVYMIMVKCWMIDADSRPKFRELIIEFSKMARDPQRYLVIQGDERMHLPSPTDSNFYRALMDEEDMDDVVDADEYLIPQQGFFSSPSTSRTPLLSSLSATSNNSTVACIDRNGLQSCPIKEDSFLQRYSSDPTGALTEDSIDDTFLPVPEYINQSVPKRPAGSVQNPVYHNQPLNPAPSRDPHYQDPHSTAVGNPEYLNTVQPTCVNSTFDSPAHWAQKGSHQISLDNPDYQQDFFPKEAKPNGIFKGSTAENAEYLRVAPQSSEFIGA
# Experimental: This assay quantifies the phosphorylation of EGFR at Tyr1068 and was used to measure the inhibitory effect of compounds on the transgenic EGFR wild type (WT) protein expressed in HEK cells.
# as §1, with “Transduced cells were selected using puromycin. p-EGFR Tyr1068 was determined using the AlphaScreen Surefire pEGF Receptor (Tyr1068) Assay (PerkinElmer, TGRERS). For” for “For”, “EGFR WT” for “HER2 YVMA”, “FBS.” for “FBS. 4 hours prior to compound addition, HER2 YVMA expression was induced using 1 μg/ml Doxycycline.”, “C.—with” for “C. with”
# This cellular phospho-EGFR (pEGFR) compound dose-response assay quantifies the phosphorylation of EGFR at Tyr1068 in HEK cells expressing EGFR WT. The results of the assay are provided as IC50 values.
# [1] = test system: NCI-H2170 (HER2 wild type) cells; test: Tumor cell line proliferation assay, NCI-H2170 (HER2 wild type); conditions: Homo sapiens, 72 h, CellTiter-Glo, read-out: GI50 NCI H-2170 HER2 wt amp.
# Experimental: (§2) For proliferation assays, NCI-H2170 (HER2 wild type), NCI-H2170 HER2 YVMA and EGFR WT dependent A431 cells were used. NCI-H2170 HER2 YVMA or NCI-H2170 cells were seeded into 96-well plates at 750 cells/60 μL in growth media (RPMI ATCC+10% FBS, +Penicillin/Streptomycin). […] Compounds were added by using a HP D3000 Digital Dispenser one day after plating the cells. All treatments were performed in technical triplicates. Treated cells were incubated for 72 h at 37° C. with 5% CO2. CellTiter-Glo® Luminescent Cell Viability Assay (Promega) was performed and chemoluminescence was measured by using the multilabel Plate Reader VICTOR X4. The raw data were imported into and analyzed with the Boehringer Ingelheim proprietary software MegaLab (curve fitting based on the program PRISM, GraphPad Inc.).
# [2] = test system: NCI-H2170 HER2 YVMA cells; test: Tumor cell line proliferation assay, NCI-H2170 HER2 YVMA; conditions: Homo sapiens, 72 h, CellTiter-Glo, read-out: GI50 NCI H-2170 HER2 YVMA
# Description: Homology-directed genome engineering was employed to insert a 12 nucleotide sequence encoding YVMA into Exon 20 of the genomic HER2 locus in NCI-H2170 cells. […] The DNA template containing the HER2 exon 20 YVMA insertion variant was obtained from GenScript. PCR followed by Sanger sequencing was used to confirm the presence of the 12-nucleotide insertion in HER2 Exon 20 resulting in the YVMA amino acid duplication.
# as §2
# [3] = test system: EGFR WT dependent A431 cells; test: Tumor cell line proliferation assay, A431; conditions: Homo sapiens, A-431, 72 h, CellTiter-Glo, read-out: GI50 A431 EGFR wt amp.
# Experimental: as §2
# Ba/F3 cells HER2 WT = test: Ba/F3 proliferation assay, HER2 WT; conditions: Mus musculus, BaF3, 72 h, CellTiter-Glo
# Experimental: (§3) Plasmids containing HER2 mutants and EGFR WT were obtained from GeneScript. To generate EGFR/HER2-dependent Ba/F3 models, Ba/F3 cells were transduced with retroviruses containing vectors that harbor EGFR WT, HER2 WT or HER2 mutants (YVMA). Platinum-E cells (Cell Biolabs) were used for retrovirus packaging. Retrovirus was added to Ba/F3 cells. To ensure infection, 4 μg/mL polybrene was added and cells were spinfected. Infection efficiency was confirmed by measuring GFP-positive cells using a cell analyzer. Cells with an infection efficiency of 10% to 20% were further cultivated and puromycin selection with 1 μg/mL was initiated. As a control, parental Ba/F3 cells were used to assess the selection status. Selection was considered successful when parental Ba/F3 cells cultures died. To evaluate the transforming potential of HER2 mutations, the growth medium was no longer supplemented with IL-3. Ba/F3 cells harboring the empty vector were used as a control. A switch from IL-3 to EGF was performed for Ba/F3 cells with the EGFR WT known for its dependency on EGF ligand. Approximately ten days before conducting the experiments, puromycin was left out. For proliferation assays (data in table 12 and 14), Ba/F3 cells were seeded into 96-well plates at 5×10^3 cells/100 μL in growth media. Compounds were added by using a HP D3000 Digital Dispenser. All treatments were performed in technical triplicates. Treated cells were incubated for 72 h at 37° C. with 5% CO2. CellTiter-Glo® Luminescent Cell Viability Assay (Promega) was performed and chemoluminescence was measured by using the multilabel Plate Reader VICTOR X4. The raw data were imported into and analyzed with the Boehringer Ingelheim proprietary software MegaLab (curve fitting based on the program PRISM, GraphPad Inc.).
# [4] = test system: Ba/F3 cells HER2 mutants (YVMA); test: Ba/F3 proliferation assay, HER2 YVMA; conditions: Mus musculus, BaF3, 72 h, CellTiter-Glo
# Experimental: as §3
# Ba/F3 cells EGFR WT = test: Ba/F3 proliferation assay, EGFR WT (EGF dependent); conditions: Mus musculus, CellTiter-Glo, read-out: GI50 BAF3 EGF dep.
# Experimental: as §3
# [5] = phosphorylation at Tyr1221/1222, 4 h
# [6] = phosphorylation at Tyr1068, 4 h
# [7] = BaF3, EGF instead of IL-3, 72 h
# [8] = BaF3, prior art compounds (Table 14), EGF, 72 h
smiles,measurement,setting,value
C=CC(=O)N1CCN(c2ncc3ncnc(Nc4ccc(Oc5ccn6ncnc6c5)c(C)c4)c3n2)CC1 [Example I-1],IC50,HER2 YVMA; [5],3 nM
same,IC50,EGFR wild type (WT); [6],153 nM
same,GI50,[1],6 nM
same,GI50,[2],36 nM
same,GI50,[3],2180 nM
same,GI50,Ba/F3 cells HER2 WT,1 nM
same,GI50,[4],9 nM
same,GI50,Ba/F3 cells EGFR WT; [7],1370 nM
C=CC(=O)N1CCN(c2ncc3ncnc(Nc4ccc(Oc5ccn6ncnc6c5)c(Cl)c4)c3n2)CC1 [Example I-2],IC50,HER2 YVMA; [5],2 nM
same,IC50,EGFR wild type (WT); [6],62 nM
same,GI50,[1],6 nM
same,GI50,[2],40 nM
same,GI50,[3],1570 nM
same,GI50,Ba/F3 cells HER2 WT,1 nM
same,GI50,[4],6 nM
same,GI50,Ba/F3 cells EGFR WT; [7],670 nM
C=CC(=O)N1CCN(c2ncc3ncnc(Nc4cc(Cl)c(Oc5ccn6ncnc6c5)c(Cl)c4)c3n2)CC1 [Example I-3],IC50,HER2 YVMA; [5],10 nM
same,IC50,EGFR wild type (WT); [6],371 nM
same,GI50,[1],12 nM
same,GI50,[2],70 nM
same,GI50,[3],3830 nM
same,GI50,Ba/F3 cells HER2 WT,2 nM
same,GI50,[4],11 nM
same,GI50,Ba/F3 cells EGFR WT; [7],2220 nM
C=CC(=O)N1CCN(c2ncc3ncnc(Nc4cc(F)c(Oc5ccn6ncnc6c5)c(Cl)c4)c3n2)CC1 [Example I-4],IC50,HER2 YVMA; [5],18 nM
same,IC50,EGFR wild type (WT); [6],524 nM
same,GI50,[1],12 nM
same,GI50,[2],85 nM
same,GI50,[3],> 5000 nM
same,GI50,Ba/F3 cells HER2 WT,2 nM
same,GI50,[4],20 nM
same,GI50,Ba/F3 cells EGFR WT; [7],1010 nM
C=CC(=O)N1CCN(c2ncc3ncnc(Nc4ccc(Oc5ccn6ncnc6c5)c(C)c4)c3n2)C[C@@H]1C [Example I-5],IC50,HER2 YVMA; [5],7 nM
same,IC50,EGFR wild type (WT); [6],840 nM
same,GI50,[1],12 nM
same,GI50,[2],108 nM
same,GI50,[3],3640 nM
same,GI50,Ba/F3 cells HER2 WT,4 nM
same,GI50,[4],60 nM
same,GI50,Ba/F3 cells EGFR WT; [7],> 5000 nM
C=CC(=O)N1CCN(c2ncc3ncnc(Nc4ccc(Oc5ccn6ncnc6c5)c(C)c4)c3n2)C[C@H]1C [Example I-6],IC50,HER2 YVMA; [5],6 nM
same,IC50,EGFR wild type (WT); [6],252 nM
same,GI50,[1],9 nM
same,GI50,[2],52 nM
same,GI50,[3],2640 nM
same,GI50,[4],15 nM
same,GI50,Ba/F3 cells EGFR WT; [7],2650 nM
C=CC(=O)N1CCN(c2ncc3ncnc(Nc4ccc(Oc5ccn6ncnc6c5)c(C)c4)c3n2)[C@H](C)C1 [Example I-7],IC50,HER2 YVMA; [5],7 nM
same,IC50,EGFR wild type (WT); [6],1200 nM
same,GI50,[1],13 nM
same,GI50,[2],125 nM
same,GI50,[3],3990 nM
same,GI50,Ba/F3 cells HER2 WT,4 nM
same,GI50,[4],29 nM
same,GI50,Ba/F3 cells EGFR WT; [7],> 5000 nM
C=CC(=O)N1CCN(c2ncc3ncnc(Nc4ccc(Oc5ccn6ncnc6c5)c(C)c4)c3n2)[C@@H](C)C1 [Example I-8],IC50,HER2 YVMA; [5],6 nM
same,IC50,EGFR wild type (WT); [6],577 nM
same,GI50,[1],14 nM
same,GI50,[2],91 nM
same,GI50,[3],3790 nM
same,GI50,Ba/F3 cells HER2 WT,3 nM
same,GI50,[4],22 nM
same,GI50,Ba/F3 cells EGFR WT; [7],> 5000 nM
"C=CC(=O)Nc1ccc2ncnc(Nc3ccc(Oc4ccn5ncnc5c4)c(C)c3)c2c1 [WO 2007/059257 Ex. 169, reference compound]",IC50,"HER2 YVMA; prior art compounds (Table 13), Tyr1221/1222, 4 h",81 nM
same,IC50,"EGFR wild type (WT); prior art compounds (Table 13), Tyr1068, 4 h",355 nM
same,GI50,[1]; prior art compounds (Table 14),426 nM
same,GI50,[2]; prior art compounds (Table 14),1430 nM
same,GI50,[3]; prior art compounds (Table 14),> 5000 nM
same,GI50,Ba/F3 cells HER2 WT; prior art compounds (Table 14),40 nM
same,GI50,[4]; prior art compounds (Table 14),334 nM
same,GI50,Ba/F3 cells EGFR WT; [8],3560 nM
"CCOc1cc2ncc(C#N)c(Nc3ccc(OCc4ccccn4)c(Cl)c3)c2cc1NC(=O)/C=C/CN(C)C [neratinib, reference compound]",GI50,[1]; prior art compounds (Table 14),3 nM
same,GI50,[2]; prior art compounds (Table 14),37 nM
same,GI50,[3]; prior art compounds (Table 14),55 nM
same,GI50,[4]; prior art compounds (Table 14),5 nM
same,GI50,Ba/F3 cells EGFR WT; [8],14 nM
